Entries after “also recorded” stand apart in the source; their conditions may differ.
Test system: Human prostate stromal cells PrSC
Assay: Cell growth suppressive activity (MTT, Test Example 1)
Assay type: cell-based
Settings: 0.024 to 100 μg/mL, 3 days culture, MTT absorbance at 570 nm, result in words
Procedure: Human prostate stromal cells PrSC (product of Bio Whittaker) were added to DMEM (product of NISSUI PHARMACEUTICAL CO., LTD.) containing 10% by mass FBS (fetal bovine serum) (product of ICN Biomedicals) to prepare a cell suspension having a concentration of 5×10^4 cells/mL. The cell suspension was placed in a 96-well plate in an amount of 0.1 mL per well. Each of the amycolose derivatives (compounds 1, 2 and 3) was added to the wells at a final concentration of 0.024 μg/mL, 0.098 μg/mL, 0.391 μg/mL, 1.563 μg/mL, 6.25 μg/mL, 25 μg/mL or 100 μg/mL, followed by culturing in an incubator for 3 days at 37° C. and 5% CO2. Then, MTT (3-[4,5-dimethylthiazol-2-yl]-2,5-diphenyltetrazolium bromide) (product of Sigma Co.), which had been adjusted with a phosphate buffer to have a concentration of 5 mg/mL, was added to each well in an amount of 10 μL, followed by culturing in an incubator for 4 hours at 37° C. and 5% CO2. Subsequently, 10 μL of 20% by mass SDS (sodium dodecylsulphate) prepared with 10 mM hydrochloric acid was added to each well, and the plate was left to stand still overnight at 37° C. to dissolve formazan formed from MTT. Thereafter, the plate was measured for absorbance at 570 nm with an absorptiometer (hereinafter may be referred to as “amycolose derivative-added sample's absorbance”). Regarding as 100% the absorbance measured when no amycolose derivative was added (hereinafter may be referred to as “control absorbance”), the cell growth rate in each of the amycolose derivatives (compounds 1, 2 and 3) at the above concentrations was calculated using the following equation (1).
Cell growth rate (%)=amycolose derivative-added sample's absorbance/control absorbance×100 Equation (1)

Structure (SMILES) | cell growth suppressive activity (cell growth rate, FIG. 5)
Cc1[nH]c(C(=O)N[C@@H](C)[C@]2(O)CC(O)O[C@H](C)[C@H]2O)c(Cl)c1Cl (stereo partly drawn) [compound 1] | exhibit cell growth suppressive activity; also recorded: remarkable cell growth suppressive activity
CO[C@H]1C[C@@](O)([C@H](C)NC(=O)c2[nH]c(C)c(Cl)c2Cl)[C@H](O)[C@@H](C)O1 [compound 2] | exhibit cell growth suppressive activity
CO[C@@H]1C[C@@](O)([C@H](C)NC(=O)c2[nH]c(C)c(Cl)c2Cl)[C@H](O)[C@@H](C)O1 [compound 3] | exhibit cell growth suppressive activity
